# Laboratory results reported in ChEMBL document CHEMBL3046832, “Synthesis of some sulfonamides, disubstituted sulfonylureas or thioureas and some structurally related variants. A class of promising antitumor agents” (2007).
# Tests used:
# Format in all cases: functional
# MDA-MB-435 = experiment: Cytotoxicity against Homo sapiens (human) MDA-MB-435 cells after 48 hr by SRB assay; details: MDA-MB-435, 48 h
# M14 = experiment: Cytotoxicity against Homo sapiens (human) M14 cells after 48 hr by SRB assay; details: M14, 48 h
# LOX IMVI = experiment: Cytotoxicity against Homo sapiens (human) LOXIMVI cells after 48 hr by SRB assay
# MCF7 [1] = experiment: Cytotoxicity against Homo sapiens (human) MCF7 cells after 48 hr by SRB assay; details: MCF7, 48 h
# MDA-MB-231 = experiment: Cytotoxicity against Homo sapiens (human) MDA-MB-231 cells after 48 hr by SRB assay; details: MDA-MB-231, 48 h
# UO-31 = experiment: Cytotoxicity against Homo sapiens (human) UO31 cells after 48 hr by SRB assay; details: UO-31, 48 h
# PC-3 = experiment: Cytotoxicity against Homo sapiens (human) PC3 cells after 48 hr by SRB assay; details: PC-3, 48 h
# RXF 393 = experiment: Cytotoxicity against Homo sapiens (human) RXF393 cells after 48 hr by SRB assay; details: RXF 393, 48 h
# 786-0 = experiment: Cytotoxicity against Homo sapiens (human) 786-0 cells after 48 hr by SRB assay; details: 786-0, 48 h
# SK-OV-3 = experiment: Cytotoxicity against Homo sapiens (human) SKOV3 cells after 48 hr by SRB assay; details: SK-OV-3, 48 h
# OVCAR-5 = experiment: Cytotoxicity against Homo sapiens (human) OVCAR5 cells after 48 hr by SRB assay; details: OVCAR-5, 48 h
# IGROV-1 = experiment: Cytotoxicity against Homo sapiens (human) IGROV1 cells after 48 hr by SRB assay; details: IGROV-1, 48 h
# OVCAR-3 = experiment: Cytotoxicity against Homo sapiens (human) OVCAR3 cells after 48 hr by SRB assay; details: OVCAR-3, 48 h
# UACC-62 = experiment: Cytotoxicity against Homo sapiens (human) UACC62 cells after 48 hr by SRB assay; details: UACC-62, 48 h
# UACC-257 = experiment: Cytotoxicity against Homo sapiens (human) UACC257 cells after 48 hr by SRB assay; details: UACC-257, 48 h
# SK-MEL-5 = experiment: Cytotoxicity against Homo sapiens (human) SK-MEL-5 cells after 48 hr by SRB assay; details: SK-MEL-5, 48 h
# SK-MEL-2 = experiment: Cytotoxicity against Homo sapiens (human) SK-MEL-2 cells after 48 hr by SRB assay; details: SK-MEL-2, 48 h
# SK-MEL-28 = experiment: Cytotoxicity against Homo sapiens (human) SK-MEL-28 cells after 48 hr by SRB assay; details: SK-MEL-28, 48 h
# [2] = Cytotoxicity against Homo sapiens (human) breast cancer cells after 48 hr by SRB assay; details: Cancer cell lines
# [3] = Cytotoxicity against Homo sapiens (human) prostate cancer cells after 48 hr by SRB assay; details: Cancer cell lines
# [4] = Cytotoxicity against Homo sapiens (human) renal cancer cells after 48 hr by SRB assay; details: Cancer cell lines
# [5] = Cytotoxicity against Homo sapiens (human) ovarian cancer cells after 48 hr by SRB assay; details: Cancer cell lines
# [6] = Cytotoxicity against Homo sapiens (human) melanoma cells after 48 hr by SRB assay; details: Melanoma cell
# [7] = Cytotoxicity against Homo sapiens (human) CNS cancer cells after 48 hr by SRB assay; details: Cancer cell lines
# [8] = Cytotoxicity against Homo sapiens (human) colon cancer cells after 48 hr by SRB assay; details: Cancer cell lines
# [9] = Cytotoxicity against Homo sapiens (human) non-small cell lung cancer cells after 48 hr by SRB assay; details: Cancer cell lines
# [10] = Cytotoxicity against Homo sapiens (human) leukemia cells after 48 hr by SRB assay; details: Leukemia cell
# SF-268 [11] = experiment: Cytotoxicity against Homo sapiens (human) SF268 cells assessed as cellular growth after 48 hr by Alamar blue assay; set-up: concentration or dose not given beside the values
# BT-549 = experiment: Cytotoxicity against Homo sapiens (human) BT549 cells after 48 hr by SRB assay; details: BT-549, 48 h
# SNB-19 = experiment: Cytotoxicity against Homo sapiens (human) SNB19 cells after 48 hr by SRB assay; details: SNB-19, 48 h
# SF-539 = experiment: Cytotoxicity against Homo sapiens (human) SF539 cells after 48 hr by SRB assay; details: SF-539, 48 h
# SF-295 = experiment: Cytotoxicity against Homo sapiens (human) SF295 cells after 48 hr by SRB assay; details: SF-295, 48 h
# SW-620 = experiment: Cytotoxicity against Homo sapiens (human) SW620 cells after 48 hr by SRB assay; details: SW-620, 48 h
# SF-268 [12] = experiment: Cytotoxicity against Homo sapiens (human) SF268 cells after 48 hr by SRB assay; details: SF-268, 48 h
# KM12 = experiment: Cytotoxicity against Homo sapiens (human) KM12 cells after 48 hr by SRB assay; details: KM12, 48 h
# HCT-15 = experiment: Cytotoxicity against Homo sapiens (human) HCT15 cells after 48 hr by SRB assay; details: HCT-15, 48 h
# NCI-H522 = experiment: Cytotoxicity against Homo sapiens (human) NCI-H522 cells after 48 hr by SRB assay; details: NCI-H522, 48 h
# COLO 205 = experiment: Cytotoxicity against Homo sapiens (human) COLO205 cells after 48 hr by SRB assay; details: COLO 205, 48 h
# [13] = Cytotoxicity against Homo sapiens (human) NCI-H322 cells after 48 hr by SRB assay; details: NCI-H322, 48 h
# NCI-H460 = experiment: Cytotoxicity against Homo sapiens (human) NCI-H460 cells after 48 hr by SRB assay; details: NCI-H460, 48 h
# HOP-92 = experiment: Cytotoxicity against Homo sapiens (human) HOP92 cells after 48 hr by SRB assay; details: HOP-92, 48 h
# EKVX = experiment: Cytotoxicity against Homo sapiens (human) EKVX cells after 48 hr by SRB assay
# CCRF-CEM = experiment: Cytotoxicity against Homo sapiens (human) CCRF-CEM cells after 48 hr by SRB assay
# MCF7 [14] = experiment: Cytotoxicity against Homo sapiens (human) MCF7 cells assessed as cellular growth after 48 hr by Alamar blue assay; set-up: concentration or dose not given beside the values
# HCC 2998 = experiment: Cytotoxicity against Homo sapiens (human) HCC2998 cells after 48 hr by SRB assay; details: HCC 2998, 48 h
# HOP-62 = experiment: Cytotoxicity against Homo sapiens (human) HOP62 cells after 48 hr by SRB assay; details: HOP-62, 48 h
smiles,measurement,setting,value
O=C(NC(=S)NS(=O)(=O)c1ccc(N2N=C3c4ccccc4CC3C2c2cccs2)cc1)c1ccccc1 (configuration not stated),GI50,MDA-MB-435,21.7 µM
same,GI50,M14,21.2 µM
same,GI50,LOX IMVI,15.2 µM
same,GI50,MCF7 [1],> 100 µM
same,GI50,MDA-MB-231,22.5 µM
same,GI50,UO-31,41.1 µM
same,GI50,PC-3,29.7 µM
same,GI50,RXF 393,54 µM
same,GI50,786-0,27.9 µM
same,GI50,SK-OV-3,90.8 µM
same,GI50,OVCAR-5,18.7 µM
same,GI50,IGROV-1,3.14 µM
same,GI50,OVCAR-3,30.6 µM
same,GI50,UACC-62,14.6 µM
same,GI50,UACC-257,42.8 µM
same,GI50,SK-MEL-5,16.9 µM
same,GI50,SK-MEL-2,44 µM
same,GI50,SK-MEL-28,84 µM
same,GI50,[2],38.6 µM
same,TGI,[2],83.7 µM
same,GI50,[3],29 µM
same,TGI,[3],> 100 µM
same,GI50,[4],45.8 µM
same,TGI,[4],87.2 µM
same,GI50,[5],41.9 µM
same,TGI,[5],95.3 µM
same,GI50,[6],34.1 µM
same,TGI,[6],67.7 µM
same,GI50,[7],53.3 µM
same,TGI,[7],90.9 µM
same,GI50,[8],35.5 µM
same,TGI,[8],85.6 µM
same,GI50,[9],37.9 µM
same,TGI,[9],78.9 µM
same,GI50,[10],27.9 µM
same,TGI,[10],77.2 µM
same,Activity,SF-268 [11],<=32%
same,GI50,BT-549,21.6 µM
same,GI50,SNB-19,46.3 µM
same,GI50,SF-539,27.9 µM
same,GI50,SF-295,25.4 µM
same,GI50,SW-620,34.8 µM
same,GI50,SF-268 [12],> 100 µM
same,GI50,KM12,28.2 µM
same,GI50,HCT-15,30.2 µM
same,GI50,NCI-H522,20.5 µM
same,GI50,COLO 205,38.4 µM
same,GI50,[13],14.2 µM
same,GI50,NCI-H460,> 100 µM
same,GI50,HOP-92,53 µM
same,GI50,EKVX,19.6 µM
same,GI50,CCRF-CEM,27.9 µM
same,Activity,MCF7 [14],<=32%
O=S(=O)(/N=c1\scc(-c2ccccc2)n1-c1ccccc1)c1ccc(N2N=C3c4ccccc4CC3C2c2cccs2)cc1 (configuration not stated),GI50,MDA-MB-435,38.7 µM
same,GI50,M14,81.5 µM
same,GI50,LOX IMVI,32.4 µM
same,GI50,MCF7 [1],29.1 µM
same,GI50,MDA-MB-231,52.1 µM
same,GI50,UO-31,> 100 µM
same,GI50,PC-3,75 µM
same,GI50,RXF 393,98.2 µM
same,GI50,786-0,64.2 µM
same,GI50,SK-OV-3,> 100 µM
same,GI50,OVCAR-5,88.9 µM
same,GI50,OVCAR-3,> 100 µM
same,GI50,UACC-62,60.3 µM
same,GI50,UACC-257,> 100 µM
same,GI50,SK-MEL-5,48 µM
same,GI50,SK-MEL-2,> 100 µM
same,GI50,SK-MEL-28,> 100 µM
same,GI50,[2],61.1 µM
same,TGI,[2],> 100 µM
same,GI50,[3],87.5 µM
same,TGI,[3],> 100 µM
same,GI50,[4],72.1 µM
same,TGI,[4],96.5 µM
same,GI50,[5],87.2 µM
same,TGI,[5],> 100 µM
same,GI50,[6],74.6 µM
same,TGI,[6],> 100 µM
same,GI50,[7],80.9 µM
same,TGI,[7],> 100 µM
same,GI50,[8],68.1 µM
same,TGI,[8],96.9 µM
same,GI50,[9],66.8 µM
same,TGI,[9],98.2 µM
same,GI50,[10],55 µM
same,TGI,[10],90.9 µM
same,Activity,SF-268 [11],<=32%
same,GI50,BT-549,47.5 µM
same,GI50,SNB-19,> 100 µM
same,GI50,SF-539,> 100 µM
same,GI50,SF-295,54.5 µM
same,GI50,SW-620,94.2 µM
same,GI50,SF-268 [12],> 100 µM
same,GI50,KM12,32.1 µM
same,GI50,HCT-15,67.4 µM
same,GI50,HCC 2998,32.8 µM
same,GI50,NCI-H522,61.9 µM
same,GI50,COLO 205,> 100 µM
same,GI50,[13],31.4 µM
same,GI50,NCI-H460,95.1 µM
same,GI50,HOP-92,> 100 µM
same,GI50,EKVX,35.5 µM
same,GI50,HOP-62,73.2 µM
same,GI50,CCRF-CEM,50.3 µM
same,Activity,MCF7 [14],<=32%
